Data as given in patent publication US20250043290A1, “RNA SEQUENCES THAT INDUCE FLUORESCENCE OF SMALL MOLECULE FLUOROPHORES, MOLECULAR COMPLEXES, SENSORS, AND METHODS OF USE THEREOF” (CORNELL UNIVERSITY, priority 2021, published 2025).
Entries after “also recorded” stand apart in the source; their conditions may differ.

Key:
mES cells = test: Ratiometric SAM imaging in mES cells; type: cell-based, Mouse; settings: 30 mM cycloleucine, +2i and −2i media, sensor 4-2
HCT116 cells = test: Ratiometric SAM imaging in HCT116 cells; type: cell-based; settings: 30 mM cycloleucine, sensor 5-1
Method: The control constitutively fluorescent Squash was not affected by withdrawal of threonine and methionine. Scale bar, 20 μm. […] Overall, low cell-to-cell variation was seen (n=8 cells from three separate experiments). […] The rate of SAM drop was slower than the rate in cells cultured in +2i (n=8 cells from three separate experiments). […] SAM levels were measured at 20 minute time intervals after methionine withdrawal and after methionine (100 μM) addition. Cells indicated with a white arrow start with a very high level of SAM and show a slow drop in SAM levels over time, indicating low SAM utilization. Scale bar, 20 μm. […]
5-1 was used because it has higher dynamic range. […] To test if this also holds in HCT116 cells, Squash-SAM sensor 5-1 was expressed in HCT116 cells and SAM level was monitored after threonine depletion. […] To test this, Squash-SAM sensor 5-1 was expressed in HCT116 cells and SAM levels were monitored for 240 minutes after depleting both threonine and methionine. […] The average cellular ratio of O/G fluorescence was quantified for these cells at 15 minute intervals after cycloleucine (30 mM final) treatment. […]
After placing the plates on a Tokai Hit stage top incubator (37° C. and 5% CO2), live fluorescence images were taken with a Nikon Eclipse Ti-E microscope fitted with a CoolSnap HQ2 CCD camera (Photometrics) through a 40× air objective (NA 0.75). […]

HEK293T cells = test: SAM sensor imaging in HEK293T cells; type: cell-based; settings: 30 mM cycloleucine, within 30 minutes
Method: FIG. 4A is a schematic showing the design of the Squash-SAM sensor transducer library. The SAM-III aptamer (top) was fused to Squash (bottom) through a transducer helix (middle). The sensor was selected from a library of randomized transducer sequences generated using the sprouts/clips method. FIG. 4B is a bar graph showing the results of an experiment in which, after three rounds of SELEX, two Squash-SAM sensors, 5-1 and 4-2, were tested for SAM-induced fluorescence. Squash-SAM sensor RNAs (1 μM) were incubated with 10 μM DFHO and 0 or 0.1 mM SAM for 1 hour at 37° C. and then fluorescence was measured (ex. 495 nm; em. 562 nm). Data represent mean values±s.d. for n=3 independent experiments. FIGS. 4C-4D are plots showing the kinetics of fluorescence activation (FIG. 4C) and deactivation (FIG. 4D) of Squash-SAM sensors. Sensor activation was induced by adding 0.1 mM SAM to 1 μM sensor RNAs and 10 μM DFHO at 37° C. Deactivation was measured after removal of SAM by gel filtration. […] SAM binding activates the orange fluorescence by promoting Squash folding and subsequent binding with DFHO. The constitutive green fluorescence of Broccoli-BI is used for normalization, thus eliminating the confounding effect of cell-to-cell variation in sensor expression level, and different fluorescence measurements in thick vs. thin parts of the cell. […] The ratio was measured at 10 minute time intervals. […]

[1] = Photophysical properties of fluorophores and RNA-fluorophore complexes (Squash study); type: physicochemical; settings: 10 μM RNA, 1 μM DFHO
Method: All RNAs used for in vitro studies (except the initial hits from SELEX and the DE2-6 mutants) were purified using 8% denaturing PAGE (7M urea) and eluted in 0.3 M NaOAc (pH 5.2) overnight. The RNA was ethanol precipitated and quantified using absorbance in a NanoDrop 2000 spectrometer. All in vitro RNA properties were measured in 40 mM HEPES-KOH (pH 7.4), 100 mM KCl, 0.5 mM MgCl2 buffer unless specified.
Absorption, excitation, and emission spectra were measured using conditions where the RNA is in excess and the fluorophore is limiting to ensure that no free fluorophore contributes to the absorbance or fluorescence signal (FIGS. 7A-7D).
All quantum yields were determined by comparing each RNA-fluorophore complex with Broccli-DFHBI-1T or Corn-DFHO. All measurements for quantum yield were taken in the presence of excess RNA (10 μM final) compared to the fluorophores (0.2 μM final) to avoid interference from unbound fluorophore. The integral of the emission spectra for each Squash-fluorophore complex was compared with the corresponding integrals for Broccoli or Corn to calculate the quantum yield.

[2] = Fluorescence activation of DFAME by aptamers in vitro; type: biochemical; settings: 20 μM RNA, 2 μM dye
Method: To test whether Beetroot can activate DFHO, the fluorescence emission spectrum of the Beetroot-DFHO complex was measured. In brief, 20 μM Beetroot and 2 μM DFHO were mixed, and the fluorescence emission of the Beetroot-DFHO complex was measured. […] To test whether Beetroot can activate DFHBI-1T, the fluorescence emission spectrum of the Beetroot-DFHBI-1T complex was measured using the same protocol described in FIG. 32A. […] To test whether Beetroot can activate BI, the fluorescence emission spectrum of the Beetroot-BI complex was measured using the same protocol described in FIG. 32A. […] To test whether Corn can activate DFAME, the fluorescence emission spectrum of the Corn-DFAME complex was measured using the same protocol described in FIG. 32A.
The eluted RNAs were then ethanol precipitated, reverse transcribed, PCR amplified and in vitro transcribed to yield the pool for the next SELEX round. The presence of fluorescent RNA species in each pool was assessed by mixing 20 μM RNA and 10 μM DFAME and measuring fluorescence emission of this solution on a fluorometer in comparison with the fluorophore alone. At this point, RNAs were cloned into bacterial expression plasmids for FACS-based screening.
dsDNA encoding the top-performing RNA sequences from the brightest bacterial colonies was PCR amplified from the purified plasmids. […] The resulting RNA was then purified using Zymo RNA concentrator columns and quantified by absorbance using a Thermo Scientific NanoDrop 2000 spectrophotometer. For absorption, excitation and emission spectra measurements, “excess RNA” conditions and limiting amount of fluorophore was used to ensure that no free fluorophore contributes to the absorbance or fluorescence signal. The RNA concentration used for fluorescence and absorbance measurements was 20 μM and 50 μM, respectively, while the dye concentration was 2 μM and 5 μM, respectively. All in vitro RNA properties were measured in 40 mM HEPES pH 7.4, 100 mM KCl, 5 mM MgCl2 buffer, unless specified.

[3] = On and off rates of aptamer binding to DFHO; settings: 50 nM RNA
Method: FIGS. 7A-7H provide photophysical and biophysical characterization of Squash. […] Excess RNA was used to ensure binding of nearly all fluorophore. […] Data represent mean values±s.d. for n=3 independent experiments. […] The fluorescence signal trace was fitted with a monoexponential curve to extract kobs. kobs was plotted as a function of total RNA (50 nM RNA) and fluorophore concentration. kon and koff were extracted as the slope and intercept, respectively. Squash koff (0.014±0.008 s^−1) is very similar to that of Corn (0.018±0.002 s^−1). kon for Squash-DFHO (162300±8100 M^−1 s^−1) is seven-times higher than Corn-DFHO (23000±3000 M^−1 s^−1) which could be due to the high folding of Squash. […]
To measure on and off rates of Squash binding to DFHO, the same protocol that was reported previously to measure kinetic rates for Spinach-DFHBI was used (Han et al., “Understanding the Photophysics of the Spinach-DFHBI RNA Aptamer-Fluorogen Complex to Improve Live-Cell RNA Imaging,” J. Am. Chem. Soc. 135:19033-19038 (2013), which is hereby incorporated by reference in its entirety). Briefly, 50 nM RNA was mixed with different amounts of DFHO and binding kinetics was monitored on the fluorimeter as fluorescence signal increases. Each fluorescence signal trace was fitted with a monoexponential curve and the observed rate constant (kobs) was extracted. […]

Molecule | SAM levels after cycloleucine (mES cells) | SAM levels after cycloleucine (HCT116 cells) | Sensor signal (SAM level) after cycloleucine (HEK293T cells) | Emission maxima with DFHO [1] [nm] | Binding and activation of DFAME fluorescence [2] | koff [3] [s⁻¹]
NC1(C(=O)O)CCCC1 [cycloleucine] | rapid drop of cellular SAM levels; also recorded: markedly depleted | marked drop in SAM | rapid decrease in fluorescence; also recorded: markedly reduced |  |  | 
Corn: previously reported RNA aptamer that homodimerizes and activates DFHO, SEQ ID NO:103 (CGAGGAAGGAGGUCUGAGGAGGUCACUG; RNA, backbone not given here) [reference compound] |  |  |  | 545 | weakly binds and activates; also recorded: only weakly bind and activate | 0.018 ± 0.002
